The values below come from patent US7423026B2, “Methylated cyclodextrin complexes” (PediPharm Oy, priority 2002, dated 2008).

A short description of series [1]: Aqueous phase-solubility study of cannabinoids with RM-β-CD. The conditions noted are these: for complexation constant for 1:1 inclusion complex, K1:1 / complexation constant for 1:2 inclusion complex, K1:2: with RM-β-CD, calculated from Ap-type phase-solubility diagram. The series is classed as physicochemical. The source says:
(§1) AU the phase-solubility diagrams (cannabinoid concentration as a function of CD concentration) are Ap-type (Higuchi and Connors 1965) and calculated complexation constants for 1:1 and 1:2 inclusion complexes has been shown in Table 1.

Series [2] is described as follows: Aqueous phase-solubility study of cannabinoids with HP-β-CD. It is filed as physicochemical. Particulars: calculated from Ap-type phase-solubility diagram.
From the text: as §1

Series [3] can be described thus: Dissolution studies of CBD formulations in 2% RM-β-CD dissolution media (pH 6.6). The series is classed as physicochemical. Particulars: gelatine capsule, 1.0 mg pure CBD and 99 mg lactose, without RM-β-CD, 2% RM-β-CD media.
Series [4] can be described thus: Dissolution studies of THC formulations in 2% RM-β-CD dissolution media (pH 6.6). Particulars: gelatine capsule, 1.0 mg pure THC and 99 mg lactose, without RM-β-CD, 2% RM-β-CD media. It is filed as physicochemical.
A short description of series [5]: Aqueous solubility of THC in HP-β-CD solution (Jarho et al.). The series is classed as physicochemical. Particulars: calculated from Jarho et al. On the procedure:
Compared to earlier findings, methylated β-CD improves the aqueous solubility of cannabinoids more efficiently, imparting promising dissolution properties for cannabinoids. […] However, the complexation of cannabinoids with methylated β-CD is more efficient compared to HP-β-CD.
As discussed above, the bioavailability of THC is 6-20% after oral administration. THC is commercially available as a capsule containing 5-10 mg of THC (Marinol). […] Thus, it can be calculated that 2 g of HP-β-CD is needed to establish a dosage form containing 5 mg of complexed THC. This is an amount that is too much for tablet formulations. According to the invention it has now been shown that the same amount of THC can be complexed with 200 mg of RM-β-CD.

For series [6] the following is noted: 40% solution of HP-β-CD; cited from earlier work.
For series [7] the following is noted: oral administration, depending on the drug vehicle; cited from earlier work.

`C=C(C)[C@@H]1CCC(C)=C[C@H]1c1c(O)cc(CCCCC)cc1O` [CBD, cannabidiol]: the “complexation constant for 1:1 inclusion complex, K1:1” value (from here on “complexation constant … K1:1”) in series [1] was 484 145 M^−1; in series [2], 13 844 M^−1. Also, the “complexation constant for 1:2 inclusion complex, K1:2” value (shortened to “complexation constant … K1:2”) in series [1] was 8 M⁻¹; in series [2] it was 62 M⁻¹. Besides, the “time until CBD is fully dissolved” value in series [3] worked out at 3 h.

With `CCCCCc1cc(O)c2c(c1)OC(C)(C)[C@@H]1CCC(C)=C[C@@H]21` [THC, Δ^9-tetrahydrocannabinol], in series [1] (1 mg of THC), the “amount of RM-β-CD to prepare the same formulation (1 mg of THC)” value is given as 25.7 mg. The “amount of RM-β-CD that complexes 5 mg of THC” value in series [1] (same amount of THC (5 mg)) is 200 mg. In addition, in series [1], the “complexation constant … K1:1” value was 19 563 M^−1 and the “complexation constant … K1:2” value is 38 M⁻¹. Moreover, in series [2], the “complexation constant … K1:1” value is 4 222 M^−1 and the “complexation constant … K1:2” value was 58 M⁻¹. Besides, in series [4], the “time until THC is fully dissolved” value was determined as 1 h. In series [5], the “amount of HP-β-CD needed for a dosage form containing 5 mg of complexed THC” value is reported as 2 g and the “amount of HP-β-CD needed to complex 1 mg of THC” value was 400 mg. The “concentration of THC solution obtained” value in series [6] is 1000 µg/mL. In addition, in series [7], the bioavailability was 6-20%.
